# Experimental data from patent publication US10244779B2, “Method of improving stability of sweet enhancer and composition containing stabilized sweet enhancer” (SENOMYX, INC., priority 2010, dated 2019).
# Test: Photostability of Compound A in various mediums (water, brewed coffee, tea, TBHQ in water; FIG. 1)
# Format: physicochemical
# Details: TBHQ 200 ppm in water
# Description: The equivalent sunlight exposure time for 24 hours in the Q-Sun at a constant temperature of 25° C. and irradiance of 450 mW/m^2 @340 nm is estimated to be equivalent to approximately 15.9 days of direct sunlight in the Southwestern United States.
# FIG. 1 illustrates the effect of coffee and tea on rate of photo-degradation of Compound A relative to water alone.
row,effect on the rate of photo-degradation of Compound A,Structure (SMILES)
1,marginal effect,CC(C)(C)c1cc(O)ccc1O [tert-butyl hydroquinone]

# Test: not given
# Details: not given
row,melting point [°C],Structure (SMILES)
1,195 to 198,"Cc1nc2cccc(OCC(C)(C)NC(=O)CC(C)C)c2c(N)c1C(=O)O [Example 138, 4-amino-2-methyl-5-(2-methyl-2-(3-methylbutanamido)propoxy)quinoline-3-carboxylic Acid]"
2,170 to 172,"Cc1nc2cccc(OCC(C)(C)C(=O)NCC3CCC3)c2c(N)c1C(=O)O [Example 151, 4-amino-5-(3-((cyclobutylmethyl)amino)-2,2-dimethyl-3-oxopropoxy)-2-methylquinoline-3-carboxylic Acid]"
3,168 to 170,"CCNC(=O)C(C)(C)COc1cccc2nc(C)c(C(=O)O)c(N)c12 [Example 144, 4-amino-5-(3-(ethylamino)-2,2-dimethyl-3-oxopropoxy)-2-methylquinoline-3-carboxylic Acid]"
4,176 to 179,"Cc1nc2cccc(OCC(C)(C)C(=O)NCC(C)C)c2c(N)c1C(=O)O [Example 150, 4-amino-5-(3-(isobutylamino)-2,2-dimethyl-3-oxopropoxy)-2-methylquinoline-3-carboxylic Acid]"
5,172 to 174,"CCC(CC)NC(=O)C(C)(C)COc1cccc2nc(C)c(C(=O)O)c(N)c12 [Example 148, 4-amino-5-(2,2-dimethyl-3-oxo-3-(pentan-3-ylamino)propoxy)-2-methyl-quinoline-3-carboxylic Acid]"
6,184 to 186,"Cc1nc2cccc(OC3CCN(C(=O)C(C)C)CC3)c2c(N)c1C(=O)O [Example 143, 4-amino-5-((1-isobutyrylpiperidin-4-yl)oxy)-2-methylquinoline-3-carboxylic Acid]"
7,186 to 190,"Cc1nc2cccc(OCC(C)(C)NC(=O)C3CCC3)c2c(N)c1C(=O)O [Example 142, 4-amino-5-(2-(cyclobutanecarboxamido)-2-methylpropoxy)-2-methylquinoline-3-carboxylic Acid]"
8,195 to 198,"Cc1nc2cccc(OCC(C)(C)NC(=O)c3cccc(O)c3)c2c(N)c1C(=O)O [Example 25, 4-amino-5-(2-(3-hydroxybenzamido)-2-methylpropoxy)-2-methylquinoline-3-carboxylic Acid]"
9,195 to 198,"Cc1nc2cccc(OCC(C)(C)NC(=O)c3ccncc3)c2c(N)c1C(=O)O [Example 24, 4-amino-5-(2-(isonicotinamido)-2-methylpropoxy)-2-methylquinoline-3-carboxylic Acid]"
10,229 to 230,"CCCOc1cccc2c1C(N)=NS(=O)(=O)N2 [Example 158, 4-Amino-5-(propyloxy)-1H-benzo[c][1,2,6]thiadiazine-2,2-dioxide]"

row,Structure (SMILES),melting point [°C]
1,"CCC(CC)COc1cccc2nc(C)c(C(=O)O)c(N)c12 [Example 22, 4-amino-5-(2-ethylbutoxy)-2-methylquinoline-3-carboxylic Acid]",145 to 151
